Data taken from US9084788B2, “Compositions and methods for treating and preventing dermatoses” (Asymmetric Therapeutics, LLC, priority 2002, dated 2015).

Key:
[1] = molecular target: T1, human dihydrouracil dehydrogenase (DPD) (Homo sapiens, UniProt Q12882); details: Naguib et al. 1985; cited from earlier work
T1 sequence (Q12882 4-1025): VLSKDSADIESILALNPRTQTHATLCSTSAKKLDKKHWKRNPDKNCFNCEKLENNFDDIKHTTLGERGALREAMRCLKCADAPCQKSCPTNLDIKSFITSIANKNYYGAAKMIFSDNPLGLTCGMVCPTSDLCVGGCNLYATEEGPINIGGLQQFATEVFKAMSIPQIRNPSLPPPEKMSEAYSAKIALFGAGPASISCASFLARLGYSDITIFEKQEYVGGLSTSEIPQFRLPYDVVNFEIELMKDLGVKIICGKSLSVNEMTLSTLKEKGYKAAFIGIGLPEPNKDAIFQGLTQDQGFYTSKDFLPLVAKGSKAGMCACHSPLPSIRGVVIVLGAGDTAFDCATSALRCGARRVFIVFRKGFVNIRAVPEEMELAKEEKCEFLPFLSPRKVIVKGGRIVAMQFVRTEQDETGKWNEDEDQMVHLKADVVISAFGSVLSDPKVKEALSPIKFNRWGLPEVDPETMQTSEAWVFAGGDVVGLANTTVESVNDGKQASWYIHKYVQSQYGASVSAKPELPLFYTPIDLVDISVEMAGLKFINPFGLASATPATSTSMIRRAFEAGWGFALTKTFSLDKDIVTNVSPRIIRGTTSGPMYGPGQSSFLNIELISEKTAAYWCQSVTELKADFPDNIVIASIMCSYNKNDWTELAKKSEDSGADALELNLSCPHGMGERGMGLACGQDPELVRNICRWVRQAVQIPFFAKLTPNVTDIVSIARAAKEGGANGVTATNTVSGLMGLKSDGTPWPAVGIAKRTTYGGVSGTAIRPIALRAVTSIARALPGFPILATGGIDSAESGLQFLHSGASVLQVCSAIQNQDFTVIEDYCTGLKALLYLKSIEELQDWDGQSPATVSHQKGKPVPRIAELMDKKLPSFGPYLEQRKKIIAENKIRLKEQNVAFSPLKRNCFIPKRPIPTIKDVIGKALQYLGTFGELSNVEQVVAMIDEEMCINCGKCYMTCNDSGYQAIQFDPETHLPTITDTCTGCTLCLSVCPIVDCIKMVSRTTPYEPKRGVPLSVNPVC

[2] = molecular target: T2, OPRT (Homo sapiens, UniProt P11172); details: neutral pH; cited from earlier work
T2 sequence (P11172 1-480): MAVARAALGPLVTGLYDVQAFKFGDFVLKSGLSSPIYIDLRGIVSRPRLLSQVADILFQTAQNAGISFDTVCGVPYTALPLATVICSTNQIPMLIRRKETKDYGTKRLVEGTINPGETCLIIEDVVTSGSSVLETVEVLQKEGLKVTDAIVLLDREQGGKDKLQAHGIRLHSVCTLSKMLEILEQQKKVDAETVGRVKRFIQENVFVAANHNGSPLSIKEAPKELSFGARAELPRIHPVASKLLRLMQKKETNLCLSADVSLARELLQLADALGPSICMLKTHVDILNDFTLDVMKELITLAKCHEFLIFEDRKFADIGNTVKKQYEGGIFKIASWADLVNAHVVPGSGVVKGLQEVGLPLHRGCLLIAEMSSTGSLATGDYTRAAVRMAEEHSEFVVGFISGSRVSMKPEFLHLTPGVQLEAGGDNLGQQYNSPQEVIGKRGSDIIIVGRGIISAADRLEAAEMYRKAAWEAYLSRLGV

[3] = molecular target: T3, dihydropyrimidine dehydrogenase (DPD) (Homo sapiens, UniProt Q12882); details: in vivo; cited from earlier work
T3 construct: greater than 80% of an injected dose of 5-FU rapidly degraded by a single pathway
T3 sequence (Q12882 4-1025): T1 sequence (Q12882 4-1025)

[4] = system: patients (Hand and Foot syndrome); experiment: Ten patients treated one to six months, prevention of Hand and Foot syndrome; assay type: in vivo, human
Source text: The calculations are based on topical application of 1 g of cream to the hands and 1 g to the feet twice a day, totaling 4 g. […] A volume of distribution (Vd) of 50 L is assumed.

[5] = system: patients (hand-foot syndrome); details: in vivo; cited from earlier work
[6] = system: Marker tumor (metastatic breast cancer); experiment: Marker tumor size in the metastatic breast cancer patient on Xeloda and Taxotere; assay type: in vivo, human; details: seen prior to course 5, on lower dose Xeloda (1000 mg/m^2)
Source text: They had refused mastectomy and had previously failed adriamycin and cytoxan, weekly taxol, and weekly navelbine. […] FIGS. 3A, 3B and 3C illustrate the incidence of Hand and Foot syndrome in patients treated with Xeloda®.

For `O=c1[nH]cc(F)c(=O)[nH]1` [5-FU, 5-fluorouracil], the “substrate quality for DPD compared with uracil” value [1] is listed as “better substrate”, the “OPRT preference for 5-FU over uracil” value [2] is listed as “about 50 times” and the “share of an injected dose rapidly degraded by the DPD pathway” value [3] is listed as “greater than 80%”.
In the case of `O=C(O)c1cc(=O)[nH]c(=O)[nH]1` [Orotate, orotate], the “Km for OPRT, lower than that of 5-FU” value [2] is given as ~50 fold.
For `O=c1cc[nH]c(=O)[nH]1` [Uracil, uracil], the toxicity [4] was “no reports of toxicity” and the “prevention of Hand and Foot syndrome” value ([4]; 1% cream) was “complete efficacy”.
For `CCCCCOC(=O)Nc1nc(=O)n([C@@H]2O[C@H](C)[C@@H](O)[C@H]2O)cc1F` [Xeloda, capecitabine], the “frequency of hand-foot syndrome during treatment” value [5] is given as “common”, the “patients with Grade II-III hand foot toxicity” value [5] is given as 10-50% and the “Marker tumor course (remark)” value [6] is given as “progression”.
